Consider 34 compounds from patent US9855268B2, “Triazolo[4,5-d]pyrimidine derivatives” (Merck Patent GmbH, priority 2013, dated 2018).

For this experiment, the target named is GCN2 (Homo sapiens, UniProt Q9P2K8). Nature of the experiment: GCN2 enzyme assay (TR-FRET Lanthascreen, GFP-eIF2alpha phosphorylation). The format is biochemical. Particulars: 10 μM ATP, 80 nM GFP-eIF2a, 30 nM GCN2. The source says: GCN2: Assay Principle & Conditions
This assay can quantificate the activity of the serin kinase GCN2 (general control non-derepressible-2).
This kinase is involved in the stress metabolism of cells. It is activated upon starvation (amino acid depletion). Its natural substrate is eIF2a (eukaryotic initiation factor 2 alpha subunit), a translation factor, which gets activated (phosphorylated) by GCN2 in case of an amino acid bottleneck in the cells. This in turn leads to a halt of the protein synthesis. Inhibition of GCN2 results in stopping this mechanism: The cell can not stop protein production upon “starvation” stress.
The assay is run in two steps: the enzymatic reaction and the detection step. In the first step GCN2 is incubated with 10 μM ATP and 80 nM of the GFP-labelled substrate eIF2alpha at room temperature.
The enzymatic reaction is stopped by addition of EDTA. The amount of phosphorylated eIF2alpha is determined by TR-FRET (Lanthascreen): A complex is formed consisting of antibody and GFP labelled phospho-eIF2a, which allows a FRET upon exitation at 340 nm.
Final Concentrations in the Enzymatic Reaction
For orientation: Time-resolved FRET reads energy transfer from a long-lived donor to a nearby acceptor.

Counter-ions that a name gives are not always drawn. Some results are limits rather than exact numbers.

Sequence of GCN2 (Q9P2K8 whole entry, species assumed): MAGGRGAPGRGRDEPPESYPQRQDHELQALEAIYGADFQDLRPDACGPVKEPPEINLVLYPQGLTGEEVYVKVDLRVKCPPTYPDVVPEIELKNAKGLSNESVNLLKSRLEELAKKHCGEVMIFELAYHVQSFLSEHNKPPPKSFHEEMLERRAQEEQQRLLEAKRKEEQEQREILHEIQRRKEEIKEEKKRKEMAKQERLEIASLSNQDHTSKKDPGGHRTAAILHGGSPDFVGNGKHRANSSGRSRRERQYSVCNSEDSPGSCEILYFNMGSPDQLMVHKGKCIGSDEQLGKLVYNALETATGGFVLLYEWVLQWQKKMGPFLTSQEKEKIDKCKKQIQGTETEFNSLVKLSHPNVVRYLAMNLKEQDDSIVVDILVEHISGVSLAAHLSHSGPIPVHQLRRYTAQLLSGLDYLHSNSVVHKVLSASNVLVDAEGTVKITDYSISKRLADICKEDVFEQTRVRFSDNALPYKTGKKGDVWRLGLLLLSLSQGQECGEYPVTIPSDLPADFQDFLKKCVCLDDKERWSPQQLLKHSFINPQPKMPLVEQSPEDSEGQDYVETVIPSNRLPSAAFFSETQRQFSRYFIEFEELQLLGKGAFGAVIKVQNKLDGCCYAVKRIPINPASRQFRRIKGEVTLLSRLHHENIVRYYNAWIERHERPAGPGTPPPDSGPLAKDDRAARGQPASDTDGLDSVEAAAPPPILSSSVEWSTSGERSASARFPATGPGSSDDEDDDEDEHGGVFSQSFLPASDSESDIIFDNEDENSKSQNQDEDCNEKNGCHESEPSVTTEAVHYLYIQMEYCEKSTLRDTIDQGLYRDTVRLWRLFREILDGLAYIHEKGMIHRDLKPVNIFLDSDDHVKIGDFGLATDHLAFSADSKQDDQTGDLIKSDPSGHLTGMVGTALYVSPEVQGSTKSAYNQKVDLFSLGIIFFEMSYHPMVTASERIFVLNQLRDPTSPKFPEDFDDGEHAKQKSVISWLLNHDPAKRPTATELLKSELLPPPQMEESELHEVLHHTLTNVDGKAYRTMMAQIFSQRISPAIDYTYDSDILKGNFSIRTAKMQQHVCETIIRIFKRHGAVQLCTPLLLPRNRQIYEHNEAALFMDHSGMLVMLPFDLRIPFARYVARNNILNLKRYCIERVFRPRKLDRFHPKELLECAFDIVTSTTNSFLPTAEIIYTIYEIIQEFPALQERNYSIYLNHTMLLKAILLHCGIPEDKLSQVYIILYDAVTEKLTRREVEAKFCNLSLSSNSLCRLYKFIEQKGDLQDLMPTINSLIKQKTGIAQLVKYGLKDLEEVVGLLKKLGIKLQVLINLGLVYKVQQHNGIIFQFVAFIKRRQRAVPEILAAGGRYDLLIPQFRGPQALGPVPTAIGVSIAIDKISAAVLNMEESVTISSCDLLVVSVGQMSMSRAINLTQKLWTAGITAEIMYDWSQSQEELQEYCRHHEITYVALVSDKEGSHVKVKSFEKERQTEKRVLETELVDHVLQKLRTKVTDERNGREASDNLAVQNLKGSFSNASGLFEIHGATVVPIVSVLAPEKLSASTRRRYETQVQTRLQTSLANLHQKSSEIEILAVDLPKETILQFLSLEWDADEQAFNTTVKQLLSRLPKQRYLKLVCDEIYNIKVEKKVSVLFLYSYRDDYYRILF

Broadly, the IC50 is the concentration that inhibits the measured activity by half. Regarding `COc1ccc(-n2nnc3cnc(N[C@H]4C[C@H](O)C4)nc32)cc1` [A24, trans-3-[3-(4-methoxy-phenyl)-3H-[1,2,3]triazolo[4,5-d]pyrimidin-5-ylamino]-cyclobutanol], the IC50 was less than 1 µM.

For `COc1ccc(-n2nnc3cnc(N[C@H]4C[C@@H](O)C4)nc32)cc1` [A25, cis-3-[3-(4-methoxy-phenyl)-3H-[1,2,3]triazolo[4,5-d]pyrimidin-5-ylamino]-cyclobutanol], the IC50 was less than 1 µM.

`COc1ccc(-n2nnc3cnc(N[C@H]4CC[C@@H](O)CC4)nc32)cc1` [A26, cis-4-[3-(4-methoxy-phenyl)-3H-[1,2,3]triazolo[4,5-d]pyrimidin-5-ylamino]-cyclohexanol] gave an IC50 of less than 1 µM.

Compound `COc1ccc(-n2nnc3cnc(N[C@H]4CCOC4)nc32)cc1` [A28, [3-(4-methoxy-phenyl)-3H-[1,2,3]triazolo[4,5-d]pyrimidin-5-yl]-(S)-tetrahydrofuran-3-yl-amine] displayed an IC50 of less than 1 µM.

In turn, `COc1ccc(-n2nnc3cnc(N[C@H]4C[C@@H](NC(=O)OC(C)(C)C)C4)nc32)cc1` [A30, {cis-3-[3-(4-methoxy-phenyl)-3H-[1,2,3]triazolo[4,5-d]pyrimidin-5-ylamino]-cyclobutyl}-carbamic acid tert-butyl ester] yielded an IC50 of less than 1 µM.

Regarding `COc1ccc(-n2nnc3cnc(N[C@H]4C[C@@H](N)C4)nc32)cc1` [A31, cis-N-[3-(4-methoxy-phenyl)-3H-[1,2,3]triazolo[4,5-d]pyrimidin-5-yl]-cyclobutane-1,3-diamine hydrochloride], the IC50 is 1 to 5 µM.

Regarding `COc1ccc(-n2nnc3cnc(N[C@H]4C[C@H](NC(=O)OC(C)(C)C)C4)nc32)cc1` [A32, {trans-3-[3-(4-methoxy-phenyl)-3H-[1,2,3]triazolo[4,5-d]pyrimidin-5-ylamino]-cyclobutyl}-carbamic acid tert-butyl ester], the 50% inhibitory concentration (IC50) is less than 1 µM.

For the compound `COc1ccc(-n2nnc3cnc(N[C@H]4CC[C@H](CNC(=O)OC(C)(C)C)CC4)nc32)cc1` [A33, {4-[3-(4-methoxy-phenyl)-3H-[1,2,3]triazolo[4,5-d]pyrimidin-5-ylamino]-cyclohexylmethyl}-carbamic acid tert-butyl ester], the IC50 is 1 to 5 µM.

Consider `COc1ccc(-n2nnc3cnc(NC4CCN(C(=O)OC(C)(C)C)CC4)nc32)cc1` [A34, 4-[3-(4-methoxy-phenyl)-3H-[1,2,3]triazolo[4,5-d]pyrimidin-5-ylamino]-piperidine-1-carboxylic acid tert-butyl ester], for which the IC50 is less than 1 µM.

`COc1ccc(-n2nnc3cnc(NC4C5CNCC54)nc32)cc1` (stereo not shown) [A37, (3-aza-bicyclo[3.1.0]hex-6-yl)-[3-(4-methoxy-phenyl)-3H-[1,2,3]triazolo[4,5-d]pyrimidin-5-yl]-amine hydrochloride]: the IC50 is 5 to 10 µM.

`COc1ccc(-n2nnc3cnc(NC4CCNCC4)nc32)cc1` [A40, [3-(4-methoxy-phenyl)-3H-[1,2,3]triazolo[4,5-d]pyrimidin-5-yl]-piperidin-4-yl-amine hydrochloride] registered an IC50 of less than 1 µM.

For the compound `COc1ccc(-n2nnc3cnc(NC4CCCN(C(C)=O)C4)nc32)cc1` (stereo not shown) [A42, 1-{3-[3-(4-methoxy-phenyl)-3H-[1,2,3]triazolo[4,5-d]pyrimidin-5-ylamino]-piperidin-1-yl}-ethanone], the IC50 was less than 1 µM.

Turning to `COc1ccc(-n2nnc3cnc(NC4CCCNC4)nc32)cc1` (stereo not shown) [A43, [3-(4-methoxy-phenyl)-3H-[1,2,3]triazolo[4,5-d]pyrimidin-5-yl]-piperidin-3-yl-amine hydrochloride], the IC50 was 1 to 5 µM.

`O=C(O)CCOc1ccc(-n2nnc3cnc(NCCCn4cc([N+](=O)[O-])cn4)nc32)cc1` [A46, 3-(4-{5-[3-(4-nitro-pyrazol-1-yl)-propylamino]-[1,2,3]triazolo[4,5-d]-pyrimidin-3-yl}-phenoxy)-propionic acid] came in with an IC50 of less than 1 µM.

As for `Nc1cnn(CCCNc2ncc3nnn(-c4ccc(OCCC(=O)O)cc4)c3n2)c1` [A47, 3-(4-{5-[3-(4-amino-pyrazol-1-yl)-propylamino]-[1,2,3]triazolo[4,5-d]pyrimidin-3-yl}-phenoxy)-propionic acid], the IC50 is less than 1 µM.

`COc1ccc(-n2nnc3cnc(NC4CCN(C(=O)CN(C)C)CC4)nc32)cc1` [A48, 2-dimethylamino-1-{4-[3-(4-methoxy-phenyl)-3H-[1,2,3]triazolo-[4,5-d]pyrimidin-5-ylamino]-piperidin-1-yl}-ethanone] showed a half-inhibitory concentration (IC50) of less than 1 µM.

The compound `COc1ccc(-n2nnc3cnc(NCCN4CCN(C)CC4)nc32)cc1` [A50, [3-(4-methoxy-phenyl)-3H-[1,2,3]triazolo[4,5-d]pyrimidin-5-yl]-[2-(4-methyl-piperazin-1-yl)-ethyl]-amine] gave an IC50 of 1 to 5 µM.

`N[C@H]1CC[C@H](Nc2ncc3nnn(-c4ccc(I)cc4)c3n2)CC1` [A53, N-[3-(4-iodo-phenyl)-3H-[1,2,3]triazolo[4,5-d]pyrimidin-5-yl]-cyclohexane-1,4-diamine]: the IC50 was less than 1 µM.

Regarding `CCn1cc(-c2ccc(-n3nnc4cnc(N[C@H]5CC[C@H](N)CC5)nc43)cc2)cn1` [A54, N-{3-[4-(1-ethyl-1H-pyrazol-4-yl)-phenyl]-3H-[1,2,3]triazolo[4,5-d]pyrimidin-5-yl}-(trans)-cyclohexane-1,4-diamine trifluoroacetate], the IC50 is less than 1 µM.

On to `COc1ccc(-n2nnc3cnc(NCCCN4CCCC4)nc32)cc1` [A61, [3-(4-methoxy-phenyl)-3H-[1,2,3]triazolo[4,5-d]pyrimidin-5-yl]-(3-pyrrolidin-1-yl-propyl)-amine], for which the IC50 was 5 to 10 µM.

Compound `COc1ccc(-n2nnc3cnc(NC4CN(C(=O)CN(C)C)C4)nc32)cc1` [A62, 2-dimethylamino-1-{3-[3-(4-methoxy-phenyl)-3H-[1,2,3]triazolo[4,5-d]pyrimidin-5-ylamino]-azetidin-1-yl}-ethanone] came in with an IC50 of 1 to 5 µM.

As for `COc1ccc(-n2nnc3cnc(NC4CN(C(=O)CCN(C)C)C4)nc32)cc1` [A63, 3-dimethylamino-1-{3-[3-(4-methoxy-phenyl)-3H-[1,2,3]triazolo[4,5-d]pyrimidin-5-ylamino]-azetidin-1-yl}-propan-1-one], the IC50 was less than 1 µM.

`COc1ccc(-n2nnc3cnc(N[C@@H]4CCN(C(=O)OC(C)(C)C)C4)nc32)cc1` [A65, (R)-3-[3-(4-methoxy-phenyl)-3H-[1,2,3]triazolo[4,5-d]pyrimidin-5-ylamino]-pyrrolidine-1-carboxylic acid tert-butyl ester] gave an IC50 of 1 to 5 µM.

Compound `COc1ccc(-n2nnc3cnc(N[C@H]4CCN(C(=O)OC(C)(C)C)C4)nc32)cc1` [A66, (S)-3-[3-(4-methoxy-phenyl)-3H-[1,2,3]triazolo[4,5-d]pyrimidin-5-ylamino]-pyrrolidine-1-carboxylic acid tert-butyl ester] gave an IC50 of 5 to 10 µM.

Compound `COCCOc1ccc(-n2nnc3cnc(NCCCc4ccccn4)nc32)cc1` [A68, {3-[4-(2-methoxy-ethoxy)-phenyl]-3H-[1,2,3]triazolo[4,5-d]pyrimidin-5-yl}-(3-pyridin-2-yl-propyl)-amine] showed an IC50 of less than 1 µM.

Take `COc1ccc(-n2nnc3cnc(N[C@@H]4CCNC4)nc32)cc1` [A69, [3-(4-methoxy-phenyl)-3H-[1,2,3]triazolo[4,5-d]pyrimidin-5-yl]-(R)-pyrrolidin-3-yl-amine hydrochloride]: the IC50 fell in the range of 1 to 5 µM.

Compound `N[C@H]1CC[C@H](Nc2ncc3nnn(-c4ccc(N5CCCC5=O)cc4)c3n2)CC1` [A71, 1-{4-[5-((trans)-4-amino-cyclohexylamino)-[1,2,3]triazolo[4,5-d]pyrimidin-3-yl]-phenyl}-pyrrolidin-2-one] yielded an IC50 of less than 1 µM.

For `COc1ccc(-n2nnc3cnc(N[C@H]4CC[C@H](CCO)CC4)nc32)cc1` [A72, trans-2-{4-[3-(4-methoxy-phenyl)-3H-[1,2,3]triazolo[4,5-d]pyrimidin-5-ylamino]-cyclohexyl}-ethanol], the IC50 was less than 1 µM.

Compound `COc1ccc(-n2nnc3cnc(N[C@H]4CC[C@@H](CCO)CC4)nc32)cc1` [A73, cis-2-{4-[3-(4-methoxy-phenyl)-3H-[1,2,3]triazolo[4,5-d]pyrimidin-5-ylamino]-cyclohexyl}-ethanol] yielded an IC50 of less than 1 µM.

In turn, `COc1ccc(-n2nnc3cnc(NCCOCCN)nc32)cc1` [A74, [2-(2-amino-ethoxy)-ethyl]-[3-(4-methoxy-phenyl)-3H-[1,2,3]triazolo[4,5-d]-pyrimidin-5-yl]-amine formate] gave an IC50 of 1 to 5 µM.

`N[C@H]1CC[C@H](Nc2ncc3nnn(-c4ccc(F)cc4)c3n2)CC1` [A75, N-[3-(4-fluoro-phenyl)-3H-[1,2,3]triazolo[4,5-d]pyrimidin-5-yl]-(trans)-cyclohexane-1,4-diamine] showed a half-inhibitory concentration (IC50) of less than 1 µM.

Regarding `COc1ccc(-n2nnc3cnc(NCCCOCCCN)nc32)cc1` [A76, [3-(3-amino-propoxy)-propyl]-[3-(4-methoxy-phenyl)-3H-[1,2,3]triazolo[4,5-d]pyrimidin-5-yl]-amine formate], the IC50 is less than 1 µM.

As to `COc1ccc(-n2nnc3cnc(N[C@H]4CCNC4)nc32)cc1` [A77, [3-(4-methoxy-phenyl)-3H-[1,2,3]triazolo[4,5-d]pyrimidin-5-yl]-(S)-pyrrolidin-3-yl-amine hydrochloride], the IC50 was in the range of 5 to 10 µM.

For the compound `COc1ccc(-n2nnc3cnc(NC4CCN(CCN5CCOCC5)CC4)nc32)cc1` [A78, [3-(4-methoxy-phenyl)-3H-[1,2,3]triazolo[4,5-d]pyrimidin-5-yl]-[1-(2-morpholin-4-yl-ethyl)-piperidin-4-yl]-amine], the IC50 lay within 1 to 5 µM.
